# Results reported in US10959998B2, “Pharmaceutical use and pharmaceutical composition of pyrroloquinoline quinine, its derivatives and/or its salts” (priority 2015, dated 2021).
# What was measured:
# [1] = test system: ectopic endometrial foci; assay: Endometriosis rat model, weight of transplanted foci; format: in vivo, SD rats; settings: for weight of ectopic endometrial foci compared with the control group / weight of cysts after treatment (mg) Mean ± SD: Example 5, rats; for weight of cysts after treatment (mg) Mean ± SD: water feeding 4 week, PQQ 1 mg/kg, NAC 10 mg/kg, Resveratro 10 mg/kg, n=9
# [2] = test system: EM lesions; settings: cited from earlier work; for lesion of EM model mice: Ricci et al. 2013, by antioxidation effect
# [3] = test system: ectopic endometrial stromal cells; assay: MTT cell proliferation of ectopic endometrial stromal cells; format: cell-based, human
# Experimental: Endometrial tissues were surgically isolated from patients with chocolate cyst of ovary, washed 2 to 3 times with PBS supplemented with antibiotics in ultra-clean cabinet, and cut into tiny pieces (about 1 mm^3 in size) with aseptic scissors. The tissues were digested with 1 mg/ml collagenase type I for 30 to 90 min at 37° C., and continually digested with Dnase I (final concentration of 15 U/ml, 2% Dnase I) for another 30 min. The digested tissues were filtered thorough 60-mesh stainless steel filter cell strainer to remove the undigested cell tissues, and were further filtered with 200- or 400-mesh strainer. The filtered solution was centrifuged at 1000 rpm for 5 min. After removing the supernatants, the cells were washed once with culture medium compounded by DMEM/F12 (1:1 v/v) and 10% fetal bovine serum, re-suspended in the culture medium, and seeded in 6-well tissue culture plate or T25 tissue culture flasks with an appropriate density. After 24 hours incubation, the culture medium was changed to remove the non-adherent blood cells, endothelial cells, macrophages and other miscellaneous cells. After primary human endometrial stromal cells were grown to reach 90% confluence, the cells were digested with 0.25% trypsin for 4 to 6 min, and then subcultured with a split ratio of 1:2 to 1:3. Vimentin which expresses specifically in stromal cells was detected by immuno-fluorescence to measure the cell purity. The cells of purity >95% were used in the following experiments. Primary ectopic endometrial stromal cells of human were subcultured and the subcultured cells of the 3th to 6th passages were chosen as experimental subjects. The cells in logarithmic growth phase were […] and incubated in the cell culture plate at a density of 50%˜60% (i.e. 2×10^4 cells/well). After growing adherent on the wall for 24 hours, the cultured cells were divided into groups and each group was given different doses of PQQ. 20 μL MTT (5 mg/ml in PBS, pH=7.4) was added to each well at indicated time points. The cells were incubated in an incubator at 37° C. in a 5% CO2 atmosphere for 4 h. At the end of incubation, the culture supernatant in each cell was carefully aspirated away. 150 μL DMSO was added to each well. Then the wells were shaken with Orbital shaker for 10 min. The absorbance of each cell was detected at wavelength 490 nm. Finally, the cell proliferation curve was drawn. Primary ectopic endometrial stromal cells were cultured and the subcultured cells of the 3th to 6th passage were chosen as experimental subjects. The cells in logarithmic growth phase were […] and incubated in the cell culture plate at a of 50%˜60% (e.g. 2×10^4 cells/well). The cells grew adhering to the wall for 24 hours before being treated with drugs. The cells were divided into groups and each group was given different dose of PQQ. At indicated time point, 20 μL […] (5 mg/ml in PBS, pH=7.4) was added to every well. The cells were then incubated in an incubator at 37° C. in a 5% CO2 atmosphere for 4 h. After terminating incubation, the culture supernatant in each cell was carefully aspirated away, but formazan crystals should not be aspirated away in any case. 150 μL DMSO was added to each well respectively. All the wells were shaken with Orbital shaker for 10 min to make the crystals adequately solubilized. The absorbance of each cell was detected at wavelength 490 nm. Finally, the cell proliferation curve was drawn.
# [4] = test system: infiltration of endometrial stroma and glands into myometrium; assay: Adenomyosis mouse model created with tamoxifen, pathological section; format: in vivo, mice
# Experimental: Disodium salt of PQQ was used in the present experiment (PQQ-Na2, donated by MITSUBISHI gas chemical (MGC), Japan). The salt was dissolved with water and the concentration of its mother liquid is 1 mg/mL.
# In the present Example, the mouse model of adenomyosis was created with tamoxifen. This method is easy to operate, the rate of molding can reach 100%, and the difference between the model mouses caused by the operation is small. At 2˜5 days after birth (the birth day was the first day), the mice were fed with 5 ul/(g·BW) peanut oil/lecithin/condensed milk mixture (volume ratio 2:0.2:3) supplemented with 0.2 mg/ml tamoxifen (produced by shanghai Fudan Fuhua Pharmaceutical Co, Ltd.) by drip feeding. In the negative control group, the mice were fed with peanut oil/lecithin/condensed milk mixture (volume ratio 2:0.2:3), with no tamoxifen added. All the mice were exposed to light for 12 h/day, and were reared by maternal lactation during 1-21 days of age. After 22 days of birth, the mice were separated with mother mice, and the female mice were reserved for the next experiment.
# After 3 months, 7 model mice were killed after anesthesia. […] The remaining model mice were divided into 5 groups with 20 mice in each group. One of the groups was chosen as model control group (fed with normal water). The drinking water for other group were supplemented with PQQ (1 mg/kg/day), NAC (10 mg/kg/day), PQQ (1 mg/kg/day) +NAC (10 mg/kg/day) (denoted by P+N (H)); PQQ (0.2 mg/kg/day) +NAC (5 mg/kg/day) (denoted by P+N (L)).
# After treatment with drugs for 4 weeks, the mice were killed by anesthesia. The uterus was surgically removed and the invasion of endometria into myometrium was analyzed by the pathological section.
# [5] = test system: ectopic endometrial stromal cells; settings: NAC 10 mM, report of Ngo et al. 2009; cited from earlier work
# [6] = test system: cysts of EM patients; settings: after three months of treatment with NAC; cited from earlier work
# [7] = 4 weeks in drinking water, PQQ (disodium salt) 1 mg/kg/day, NAC 10 mg/kg/day, P+N (H) 1+10, P+N (L) 0.2+5 mg/kg/day
Compound,weight of ectopic endometrial foci compared with the control group ([1]; after 4 weeks treatment),weight of cysts after treatment (mg) Mean ± SD [1] [mg],lesion of EM model mice [2],cell proliferation ([3]; NAC 10 um alone),cell proliferation ([3]; NAC 100 um alone),"weight of ectopic cys after treatment (mg) Mean ± SD ([1]; Example 7, rats, 4 weeks in drinking water, PQQ (disodium salt) 1 mg/kg/day, NAC 10 mg/kg/day, P+N (H) 1+10, P+N (L) 0.2+5 mg/kg/day, n=12) [mg]","weight of ectopic cyst compared with model control group ([1]; Example 7, rats, after 4 weeks treatment, PQQ as disodium salt)","infiltration of endometrial glands, positive animals/total animals [4, 7]","infiltration of endometrial stroma, positive animals/total animals [4, 7]","number of animals with infiltration of endometrial stroma and glands compared with model control group ([4]; after 4 weeks treatment, PQQ as disodium salt)",proliferation of ectopic endometrial stromal cells [5],"growth of EM lesions ([2]; mouse models of endometriosis, NAC daily dose 1.3 g/kg/day)",cysts sizes within EM patients [6]
"Oc1ccc(C=Cc2cc(O)cc(O)c2)cc1 [Res, Resveratrol]",no evident difference from that of the control group,122.1 ± 30.7,effectively inhibit the lesion of EM model mice,,,,,,,,,,
Epigallocatechin-3-gallate [EGCG],,,effectively inhibit the lesion of EM model mice,,,,,,,,,,
"CC(=O)N[C@@H](CS)C(=O)O [NAC, N-acetyl-L-cysteine]",no evident difference from that of the control group,138.1 ± 33.1,,no evident effect,effectively inhibit the cell proliferation,142.1 ± 13.4,no obvious difference with the control group,18/20,19/20,no obvious difference with the control group,inhibit the proliferation of ectopic endometrial stromal cells,significantly inhibit the growth of EM lesions,cysts sizes within EM patients were reduced significantly
